Test results as given in patent US12083109B2, “Neurokinin antagonists and uses thereof” (California Institute of Technology, priority 2017, dated 2024).
Entries after “also recorded” stand apart in the source; their conditions may differ.

Assays:
[1] = Spooren et al., 2005; cited from earlier work
Nk3R [2] = target: T1, Nk3R (Mus musculus, UniProt P47937); assay: SIS mice: overall behavioral effects and return to group housing, osanetant; assay type: in vivo; parameters: from tissue; host or cells: Living mice (wild-type C57Bl6/N males, Charles River); settings: for fighting/aggression on return of SIS mice to housing with cagemates: osanetant during or during or following SIS
T1 sequence (P47937 1-452): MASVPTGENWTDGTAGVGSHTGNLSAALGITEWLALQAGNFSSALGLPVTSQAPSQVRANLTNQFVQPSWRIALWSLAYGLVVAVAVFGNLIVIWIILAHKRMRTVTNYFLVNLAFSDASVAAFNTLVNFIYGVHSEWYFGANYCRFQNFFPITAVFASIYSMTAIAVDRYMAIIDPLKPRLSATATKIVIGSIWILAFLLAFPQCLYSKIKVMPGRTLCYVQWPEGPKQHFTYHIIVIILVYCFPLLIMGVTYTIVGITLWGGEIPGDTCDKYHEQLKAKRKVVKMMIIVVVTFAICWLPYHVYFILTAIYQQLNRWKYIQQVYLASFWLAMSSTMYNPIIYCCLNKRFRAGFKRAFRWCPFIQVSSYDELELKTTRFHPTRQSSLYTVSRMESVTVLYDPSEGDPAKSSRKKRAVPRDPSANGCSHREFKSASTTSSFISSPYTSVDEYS
Excerpt: WT males (Charles River) were housed in isolation (1 animal per cage), or in groups of 3. Tac2-Cre males (bred in-house) were housed in isolation, or in groups of 2-5. Animals were isolated post-weaning, at 8-16 weeks of age. All cage conditions remained otherwise identical for group-housed mice compared to isolated animals, and mice were housed on the same rack in the same vivarium. Except as otherwise indicated, social isolation was maintained for at least 2 weeks (this period was extended in the case of surgical experiments, i.e. when adequate time for recovery and viral expression levels were required). All mice were between 12-20 weeks of age at the time of behavioral testing. We asked whether Tac2 signaling is required during the period of social isolation to observe the changes in behavior. Mice were administered osanetant daily in their home cage during the two-week social isolation period, but were then tested off-drug. To control for carry-over of the drug from the final homecage administration into the testing period (24 hrs later), an additional group of mice was subjected to two weeks of SIS without drug, and given a single home-cage administration of osanetant 24 hours prior to testing (FIG. 3G).

Nk3R [3] = target: T1, Nk3R; assay: Acoustic startle response, osanetant; assay type: in vivo; parameters: from tissue; host or cells: Living mice (wild-type C57Bl6/N males, Charles River); settings: SIS mice; acute systemic osanetant; listed as Osanetant
Experimental: (§1) Mice were administered the Nk3R antagonist osanetant (Axon Medchem, Axon 1533) either systemically or intra-brain region. Osanctant was dissolved in saline with 0.1% Tween 20 (vehicle). For systemic administration mice received an intraperitoneal (i.p.) injection (5 mg/kg) 20 minutes prior to behavioral testing. For microinfusions, guide cannulas were removed from mice and replaced with injector cannulas (Plastics One), which protruded 0.5 mm from the tip of the guide cannula. Injectors were attached to 5 μl Hamilton syringes with PE tubing (Plastics One) and mounted on a microinfusion pump (Harvard Apparatus) for controlled infusion of osanetant (0.3 μl vehicle with 375 ng dose per site injected over 6 minutes). For experiments using systemic administration of clozapine-N-oxide (CNO), CNO (Enzo Life Sciences-Biomol, BML-NS105-0005) was dissolved in saline (9 g/L NaCl) and injected (i.p.) at 5 mg/kg for hM4DREADD silencing or 2 mg/kg for hM3DREADD activation 20 minutes prior to behavioral testing. CNO was also administered chronically in drinking water (0.5 mg CNO/100 ml water).

Nk3R [4] = target: T1, Nk3R; assay: Tone fear conditioning test (freezing to conditioned tone), osanetant; assay type: in vivo; parameters: from tissue; host or cells: Living mice (wild-type C57Bl6/N males, Charles River); settings: for SIS-induced persistent (post) freezing to fear-conditioned tone: SIS mice; for acute (and thereby persistent) freezing to conditioned threatening stimulus (tone): osanetant injection into CeA; for SIS-induced persistent freezing to conditioned tone: osanetant microinfusion into dBNSTa, 375 ng per site, 20 min before test
Experimental: The protocol for tone trace fear conditioning was performed as previously described (Cushman et al., 2014; incorporated by reference in its entirety) using fear conditioning boxes previously described in detail (Haubensak et al., 2010; Kunwar et al., 2015; incorporated by reference in their entirety). Briefly, mice were transported in squads of four on a white cart to a novel behavioral testing room containing 4 sound-attenuating fear-conditioning chambers (Med Associates). This “training context” was comprised of flat grid flooring (wired to a shock generator and scrambler for footshock delivery, Med Associates), houselights, and the presence of an internal fan for background noise. Chambers were sprayed with 70% Simple Green solution on the underlying chamber pan to generate a unique contextual scent and chambers were cleaned with 70% EtOH between squads. Trace fear conditioning consisted of a 3 minute baseline period followed by 3 tone-shock trials consisting of a 20 second tone conditional stimulus (CS; 75 dB, 2800 Hz), a 20 second trace interval and a 2 second footshock unconditional stimulus (US; 0.7 mA). The inter-trial interval (ITI) between trials was 60 seconds. Mice remained in the chambers an additional 60 seconds before being transported back to the vivarium. The following day, mice were transported in fresh cardboard boxes to a novel behavioral testing room consisting of 4 distinct fear-conditioning boxes to test for tone fear. The “test context” consisted of the houselights and fan turned off, uneven grid flooring, a 1% acetic acid scent and a black plastic insert used to generate a triangular roof. Testing was performed identical to training with the exception that shocks were omitted from test trials to allow for behavior assessment to the tone. A single shock was administered in the last minute of testing to assess activity burst responding to the shock. This allowed assessment of reactivity to the shock under our various manipulations performed during testing without disrupting fear acquisition by performing manipulations during training. All experimental manipulations and data shown herein were performed during the test phase of fear conditioning (training data not shown). Training and testing context were counterbalanced across mice. Freezing behavior during the baseline period as well as during each tone presentation (“during”) and trace interval (“post”) were assessed as previously described (Zelikowsky et al., 2014; incorporated by reference in its entirety) using automated near-infrared video tracking equipment and computer software (VideoFreeze, Med Associates). Shock reactivity (motion, arbitrary units) was measured during the 2 second shock US as well as the 3 seconds immediately following.
as §1

- behavioral effects of 2 weeks of social isolation stress (overall) (Nk3R [2]; mice): protects and prevents
- fighting/aggression on return of SIS mice to housing with cagemates (Nk3R [2]): without any subsequent fighting observed
- fighting/aggression on return of SIS mice to housing with cagemates (Nk3R [2]; listed as Osanetant): prevents aggression
- SIS-induced enhanced acoustic startle responding (Nk3R [3]): blocked; also recorded: attenuated
- SIS-induced persistent (post) freezing to fear-conditioned tone (Nk3R [4]; osanetant 5 mg/kg i.p. 20 min before test): blocked
- SIS-induced persistent (post) freezing to fear-conditioned tone (Nk3R [4]; osanetant 5 mg/kg i.p. 20 min before test, listed as Osanetant): attenuated
- freezing during presentation of conditioned tone (acute) (Nk3R [4]; osanetant 5 mg/kg i.p. 20 min before test, between groups): no significant differences
- acute (and thereby persistent) freezing to conditioned threatening stimulus (tone) (Nk3R [4]): reduced
- acute (and thereby persistent) freezing to conditioned threatening stimulus (tone) (Nk3R [4]; listed as Osanetant): selectively blocked
- persistent responses to conditioned tone (Nk3R [4]; osanetant microinfusion into DMH): had no effect
- SIS-induced persistent freezing to conditioned tone (Nk3R [4]): selectively inhibited
- SIS-induced persistent freezing to conditioned tone (Nk3R [4]; listed as Osanetant): selectively blocked
SMILES: CC(=O)N(C)C1(c2ccccc2)CCN(CCC[C@]2(c3ccc(Cl)c(Cl)c3)CCCN(C(=O)c3ccccc3)C2)CC1 [osanetant, N-(1-{3-[(3R)-1-benzoyl-3-(3,4-dichlorophenyl)piperidin-3-yl]propyl}-4-phenylpiperidin-4-yl)-N-methylacetamide]
- blood-brain barrier passage [1]: crosses the blood-brain barrier
